In general, Ki refers to a dissociation constant, usually derived from enzyme kinetics or from competition with a known ligand. Read a low Ki as tighter binding.

In the first test the target is T1, purified ITK (Invitrogen PV3875) (Homo sapiens, UniProt Q08881).
T1 construct: purchased Invitrogen PV3875
T1 sequence (Q08881 1-620): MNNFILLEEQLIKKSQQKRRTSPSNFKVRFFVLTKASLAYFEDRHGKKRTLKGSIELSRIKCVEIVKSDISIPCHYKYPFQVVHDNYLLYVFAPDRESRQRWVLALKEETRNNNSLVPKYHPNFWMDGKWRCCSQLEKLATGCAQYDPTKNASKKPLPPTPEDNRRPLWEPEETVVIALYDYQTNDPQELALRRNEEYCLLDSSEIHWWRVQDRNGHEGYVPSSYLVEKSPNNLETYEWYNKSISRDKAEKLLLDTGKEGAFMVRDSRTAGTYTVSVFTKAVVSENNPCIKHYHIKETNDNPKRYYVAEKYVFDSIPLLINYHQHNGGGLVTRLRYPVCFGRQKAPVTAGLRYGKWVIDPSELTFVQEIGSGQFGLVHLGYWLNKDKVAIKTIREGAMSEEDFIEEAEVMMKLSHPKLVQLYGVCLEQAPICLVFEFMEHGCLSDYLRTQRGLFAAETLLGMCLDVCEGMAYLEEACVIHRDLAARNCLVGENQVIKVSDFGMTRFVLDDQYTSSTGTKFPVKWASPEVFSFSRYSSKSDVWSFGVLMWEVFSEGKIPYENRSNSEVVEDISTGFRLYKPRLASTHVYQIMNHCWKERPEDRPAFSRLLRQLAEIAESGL
As to the kind of experiment: ITK peptide phosphorylation assay (Caliper LabChip or LCMS). The class given is biochemical. The following applies: Table 1, Examples 141-279. As to the method:
The ability of purified ITK (Invitrogen PV3875) to catalyze peptide phosphorylation is monitored using a Caliper LabChip 3000 microfluidic unit (Caliper assay) or by liquid chromatography-mass spectrometry (LCMS) using a Waters Acquity system (LCMS assay). […] Reactions are quenched by the addition of 2,2′,2″,2′″-(ethane-1,2-diyldinitrilo)tetraacetic acid (50 mM final). Non-phosphorylated substrate and phosphorylated product peptides are separated and quantified using a Caliper LabChip 3000 instrument. […] Reactions are quenched by the addition of trichloroacetic acid (5% v/v final). Non-phosphorylated substrate and phosphorylated product peptides are separated by ultra performance LC and detected by a coupled triple quadrupole MS device applying multiple reaction monitoring (MRM) for quantification. The area of the MRM-extracted mass signal is used to assess the inhibition by test compounds. Equilibrium dissociation constant (Ki) values for ITK inhibitors are calculated from plots of activity vs. inhibitor concentration using Morrison's quadratic equation that accounts for the potential of tight binding, and by also applying the conversion factor that accounts for competitive inhibition and the concentration of ATP used in the assay relative to its apparent Michaelis constant (Km,app).
With `N#Cc1cccc(Cn2cc(NC(=O)c3n[nH]c4cc(C(F)(F)F)ccc34)cn2)c1` [Example 250, N-[1-[(3-cyanophenyl)meth-yl]pyrazol-4-yl]-6-(trifluoromethyl)-1H-indazole-3-carboxamide], the affinity, expressed as Ki, was 103 nM.

`O=C(Nc1cnn(Cc2c[nH]cn2)c1)c1n[nH]c2cc(-c3cn[nH]c3)ccc12` [Example 167, N-[1-(1H-imidazol-4-ylmethyl)pyrazol-4-yl]-6-(1H-pyrazol-4-yl)-1H-indazole-3-carboxamide] gave a Ki of 7.68 nM.

Consider `N#Cc1cccc(Cn2cc(NC(=O)c3n[nH]c4cc(-c5cnco5)ccc34)cn2)c1` [Example 197, N-[1-[(3-cyanophenyl)meth-yl]pyrazol-4-yl]-6-oxazol-5-yl-1H-indazole-3-carboxamide], for which the affinity corresponds to a Ki of 2.04 nM. Still for that read-out and setting: in the case of `O=C(Nc1cnn(Cc2csc(N3CCC(O)CC3)n2)c1)c1n[nH]c2cc(-c3cn[nH]c3)ccc12` [Example 159, N-[1-[[2-(4-hydroxy-1-piperidyl)thiazol-4-yl]methyl]pyrazol-4-yl]-6-(1H-pyrazol-4-yl)-1H-indazole-3-carboxamide] it was 3.11 nM; in that of `N#Cc1cccc(Cn2cc(NC(=O)c3n[nH]c4cc(-c5cncnc5)c(F)cc34)cn2)c1` [Example 154, N-[1-[(3-cyanophenyl)meth-yl]pyrazol-4-yl]-5-fluoro-6-pyrimidin-5-yl-1H-indazole-3-carboxamide], 112 nM; in that of `O=C(Nc1cnn(Cc2ccccc2)c1)c1n[nH]c2cc(-c3cncc(F)c3)ccc12` [Example 210, N-(1-benzylpyrazol-4-yl)-6-(5-fluoro-3-pyridyl)-1H-indazole-3-carboxamide], 5 nM. In turn, `N#Cc1cccc(Cn2cc(NC(=O)c3n[nH]c4cc(Br)c(F)cc34)cn2)c1` [Example 146, 6-bromo-N-[1-[(3-cyanophenyl)meth-yl]pyrazol-4-yl]-5-fluoro-1H-indazole-3-carboxamide] came in with a Ki of 111 nM. This Ki is about 22-fold higher than that of the compound before. Compound `N#Cc1cccc(Cn2cc(NC(=O)c3n[nH]c4ccc(NC5CCCCC5)cc34)cn2)c1` [Example 195, N-[1-[(3-cyanophenyl)meth-yl]pyrazol-4-yl]-5-(cyclohexylamino)-1H-indazole-3-carboxamide] had a Ki of 42.4 nM. Against the preceding compound, the Ki is about 2.6-fold lower. `CC(=O)N(C)CCC(c1ccccc1)n1cc(NC(=O)c2n[nH]c3ccccc23)cn1` (stereo not drawn) [Example 266, N-[1-[3-[acetyl(methyl)a-mino]-1-phenyl-propyl]pyrazol-4-yl]-1H-indazole-3-carboxamide] displayed a Ki of 100 nM.

The compound “6-(6-methoxy-3- pyridyl)-N-[1-(3- pyridylmethyl)py- razol-4-yl]-1H- indazole-3- carboxamide [Example 244]” yielded a Ki of 32.3 nM.

In turn, `COc1cncc(-c2ccc3c(C(=O)Nc4cnn(Cc5ccncc5)c4)n[nH]c3c2)c1` [Example 219, 6-(5-methoxy-3-pyridyl)-N-[1-(4-pyridylmethyl)py-razol-4-yl]-1H-indazole-3-carboxamide] yielded a Ki of 23 nM.

The compound `O=C(Nc1cnn(C2CCOc3ccccc32)c1)c1n[nH]c2cc(-c3cn[nH]c3)ccc12` (stereo not drawn) [Example 185, N-(1-chroman-4-ylpyrazol-4-yl)-6-(1H-pyrazol-4-yl)-1H-indazole-3-carboxamide] showed a Ki of 759 nM. This Ki is about 33-fold higher than that of the compound before. In turn, `O=C(Nc1cnn(CCC2CCCCC2)c1)c1n[nH]c2cc(-c3cn[nH]c3)ccc12` [Example 169, N-[1-(2-cyclohexylethyl)py-razol-4-yl]-6-(1H-pyrazol-4-yl)-1H-indazole-3-carboxamide] came in with a Ki of 7.65 nM. In turn, `N#Cc1cccc(Cn2cc(NC(=O)c3n[nH]c4cc(NC5CCNCC5)ccc34)cn2)c1` [Example 173, N-[1-[(3-cyanophenyl)meth-yl]pyrazol-4-yl]-6-(4-piperidylamino)-1H-indazole-3-carboxamide] registered a Ki of 1200 nM. Compared with the last compound, the Ki is about 160-fold higher. In turn, `CN1CCC(c2ccc3c(C(=O)Nc4cnn(Cc5cccc(C#N)c5)c4)n[nH]c3c2)C1` (stereo not drawn) [Example 188, N-[1-[(3-cyanophenyl)meth-yl]pyrazol-4-yl]-6-(1-methylpyrrolidin-3-yl)-1H-indazole-3-carboxamide] returned a Ki of 1600 nM. The Ki values of the last two compounds are within 1.5-fold of each other.

Still in this test, the particulars now being: Table 2, Examples 1-140, class symbols.
`O=C(Nc1cnn(Cc2ccncc2)c1)c1n[nH]c2ccccc12` [Example 52, N-(1-(pyridin-4-ylmethyl)-1H-pyrazol-4-yl)-1H-indazole-3-carboxamide] came in with a Ki of 1 to 100 nM. Same read-out and setting: in the case of `Nc1cc(Cn2cc(NC(=O)c3n[nH]c4cc(-c5cccnc5)ccc34)cn2)ccn1` [Example 32, N-[1-[(2-amino-4-pyridyl)methyl]pyrazol-4-yl]-6-(3-pyridyl)-1H-indazole-3-carboxamide] it was 1 to 100 nM; in that of `CCCNCc1cccc(Cn2cc(NC(=O)c3n[nH]c4ccccc34)cn2)c1` [Example 97, N-(1-(3-((propylamino)methyl)benzyl)-1H-pyrazol-4-yl)-1H-indazole-3-carboxamide], 1 to 100 nM; in that of `O=C(Nc1cnn(Cc2cccc(CNC3CCC3)c2)c1)c1n[nH]c2ccccc12` [Example 94, N-(1-(3-((cyclobutylamino)methyl)benzyl)-1H-pyrazol-4-yl)-1H-indazole-3-carboxamide], 1 to 100 nM. `Nc1cc(Cn2cc(NC(=O)c3n[nH]c4cc(-c5cn[nH]c5)ccc34)cn2)ccn1` [Example 28, 6-(1H-Pyrazol-4-yl)-1H-indazole-3-carboxylic acid [1-(2-amino-pyridin-4-ylmethyl)-1H-pyrazol-4-yl]-amide] came in with a Ki of 1 to 100 nM.

Turning to `CNC(=O)c1ccc(Cn2cc(NC(=O)c3n[nH]c4cc(-c5cn[nH]c5)ccc34)cn2)o1` [Example 15, 6-(1H-Pyrazol-4-yl)-1H-indazole-3-carboxylic acid [1-(5-methylcarbamoyl-furan-2-ylmethyl)-1H-pyrazol-4-yl]-amid], the Ki was in the range of 1 to 100 nM. Still for that read-out and setting: in the case of `COc1ccc2c(C(=O)Nc3cnn(Cc4cccc(C#N)c4)c3)n[nH]c2c1` [Example 6, N-(1-(3-cyanobenzyl)-1H-pyrazol-4-yl)-6-methoxy-1H-indazole-3-carboxamide] it was 1 to 100 nM; in that of `CN(C)CCNCc1ccc(Cn2cc(NC(=O)c3n[nH]c4ccccc34)cn2)cc1` [Example 104, N-(1-(4-((2-(dimethylamino)ethylamino)methyl)benzyl)-1H-pyrazol-4-yl)-1H-indazole-3-carboxamide], 1 to 100 nM.

`O=C(Nc1cnn(Cc2cccc(CNCC3CC3)c2)c1)c1n[nH]c2ccccc12` [Example 95, N-(1-(3-((cyclopropylmethylamino)methyl)benzyl)-1H-pyrazol-4-yl)-1H-indazole-3-carboxamide] registered a Ki of 1 to 100 nM. On the same count and under the same terms, in the case of `O=C(Nc1cnn(Cc2cccc(CNCCO)c2)c1)c1n[nH]c2ccccc12` [Example 96, N-(1-(3-((2-hydroxyethylamino)methyl)benzyl)-1H-pyrazol-4-yl)-1H-indazole-3-carboxamide] it was 1 to 100 nM; in that of `O=C(Nc1cnn(Cc2ccc(CN3CCC3)cc2)c1)c1n[nH]c2ccccc12` [Example 103, N-(1-(4-(azetidin-1-ylmethyl)benzyl)-1H-pyrazol-4-yl)-1H-indazole-3-carboxamide], 1 to 100 nM. Same read-out and setting: in the case of `CC(C)(O)CNCc1ccc(Cn2cc(NC(=O)c3n[nH]c4ccccc34)cn2)cc1` [Example 113, N-(1-(4-((2-hydroxy-2-methylpropylamino)methyl)benzyl)-1H-pyrazol-4-yl)-1H-indazole-3-carboxamide] it was 1 to 100 nM; in that of `O=C(Nc1cnn(Cc2ccccc2F)c1)c1n[nH]c2ccccc12` [Example 65, N-(1-(2-fluorobenzyl)-1H-pyrazol-4-yl)-1H-indazole-3-carboxamide], 1 to 100 nM; in that of `Cc1ncccc1-c1ccc2c(C(=O)Nc3cnn(Cc4cccc(C#N)c4)c3)n[nH]c2c1` [Example 118, N-(1-(3-cyanobenzyl)-1H-pyrazol-4-yl)-6-(2-methylpyridin-3-yl)-1H-indazole-3-carboxamide], greater than 100 nM. For `O=C(Nc1cnn(Cc2cscn2)c1)c1n[nH]c2cc(-c3cn[nH]c3)ccc12` [Example 26, 6-(1H-Pyrazol-4-yl)-1H-indazole-3-carboxylic acid (1-thiazol-4-ylmethyl-1H-pyrazol-4-yl)-amide], the Ki was 1 to 100 nM. On the same count and under the same terms, in the case of `N#Cc1cccc(Cn2cc(NC(=O)c3n[nH]c4ccc(F)cc34)cn2)c1` [Example 7, N-(1-(3-cyanobenzyl)-1H-pyrazol-4-yl)-5-fluoro-1H-indazole-3-carboxamide] it was 1 to 100 nM.

The test is the same for the next values; noted with them: Table 3, specific values for certain examples.
Turning to `O=C(Nc1cnn(Cc2cccc(CNCCO)c2)c1)c1n[nH]c2ccccc12` [Example 96, N-(1-(3-((2-hydroxyethylamino)methyl)benzyl)-1H-pyrazol-4-yl)-1H-indazole-3-carboxamide], the Ki was determined as 38.7 nM. Same read-out and setting: in the case of `Cc1ncccc1-c1ccc2c(C(=O)Nc3cnn(Cc4cccc(C#N)c4)c3)n[nH]c2c1` [Example 118, N-(1-(3-cyanobenzyl)-1H-pyrazol-4-yl)-6-(2-methylpyridin-3-yl)-1H-indazole-3-carboxamide] it was 110 nM.
